Measured values taken from US11559525B2, “Therapeutic drug for dyskinesia” (Sumitomo Pharma Co., Ltd., priority 2019, dated 2023).
Marks after values point to notes of the source that are not given here.

Assays:
[1] = system: PD-LID rat model (6-OHDA-lesioned rats); experiment: Dyskinesia improving effect upon continuous subcutaneous infusion of tandospirone in PD-LID rat model; type: in vivo
Experimental: The behavior was observed and evaluated before the drug evaluation date. The rats were assigned to each dosing group by using the 3 hour AIMs score, Locomotive behavior score, and rat body weight as indicators, which were used for evaluation of drugs. However, individuals with a total AIMs score of less than 10 were excluded from the test as lacking manifestation of a dyskinesia-like symptom. Individuals with a body weight deviating 10% or more from the mean body weight were also excluded from the test to minimize variation in the dosage for each individual. […] The prepared solution was used after injection into an ALZET® Osmotic Pump MODEL 2ML1 (9.68 μL/hour; DURECT). […] After 4 hours, a levodopa containing solution was administered to observe and evaluate the behavior. […] The results in the drawings are indicated in terms of mean value±standard error. The test results were statistically analyzed by comparison with the solvent administration group by Steel test using the total AIMs score in 3 hours and the total AIMs score in 100 to 180 minutes as parameters. * indicates p<0.05, meaning that there is a significant difference.

dopamine 2 receptors = dopamine 2 receptors (Homo sapiens, UniProt P14416); conditions: in vitro; cited from earlier work
dopamine 2 receptors, sequence (P14416 whole entry): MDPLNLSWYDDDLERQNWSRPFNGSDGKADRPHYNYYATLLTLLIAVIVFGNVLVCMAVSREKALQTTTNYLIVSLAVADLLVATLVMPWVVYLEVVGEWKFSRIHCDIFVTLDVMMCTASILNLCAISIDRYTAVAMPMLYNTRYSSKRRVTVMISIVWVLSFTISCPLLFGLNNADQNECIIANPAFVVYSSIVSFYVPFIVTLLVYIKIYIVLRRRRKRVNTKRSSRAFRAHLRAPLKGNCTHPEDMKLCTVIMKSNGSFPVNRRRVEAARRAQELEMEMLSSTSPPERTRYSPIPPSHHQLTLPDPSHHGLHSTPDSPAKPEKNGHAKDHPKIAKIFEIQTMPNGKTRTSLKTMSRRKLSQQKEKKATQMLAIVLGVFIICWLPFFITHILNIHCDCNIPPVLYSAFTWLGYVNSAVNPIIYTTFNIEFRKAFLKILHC

[2] = system: PD-LID rat model (6-OHDA-lesioned rats); experiment: Oral administration of tandospirone citrate on dyskinesia-like symptoms in PD-LID rat model; type: in vivo
Experimental: The behavior was observed and evaluated using the same method as Example 2. […] After 5 minutes, a levodopa containing solution was intraperitoneally administered, and the behavior was observed and evaluated. The results in the drawings are indicated in terms of mean value±standard error. The test results were statistically analyzed by comparison with the solvent administration group by Steel test using the total AIMs score in 3 hours and total AIMs score in 100 to 180 minutes as parameters. * indicates p<0.05, meaning that there is a significant difference. The dosage was described as a numerical value converted in terms of tandospirone free form.

[3] = Plasma tandospirone concentration measured after observation and evaluation of behavior in PD-LID rats; type: in vivo, rat; conditions: rat, plasma
Experimental: 50 μL of rat plasma sample was fractionated into a polypropylene microtube. 50 μL of methanol (50 μL of standard solution for calibration curve sample) and 200 μL of internal standard solution (Bezafibrate methanol solution: 200 nmol/L, 200 μL of methanol for blank sample) are added and stirred for about 10 seconds with a mixer. This is centrifuged (4° C., 4500 rpm, 10 min), and then the supernatant is subjected to vacuum filtration using a filter (FastRemover MF 0.2 μm). 70 μL of aqueous 10 mmol/L ammonium acetate solution is added to 70 μL of the resulting filtrate and stirred for about 10 seconds with a mixer to prepare a measurement sample.
When evaluating a tape agent, the hair on the abdominal region of rats was shaved before the evaluation date. The tape agent of formulation 2 was applied to the abdominal regions of rats on the evaluation date at 60 cm^2/kg (37 mg/kg). After 4 hours from application, a levodopa containing solution was intraperitoneally administered to observe and evaluate the behavior. Individuals with 50% or more of the tape agent coming off during the test were excluded from analysis.
After 4 hours from application, a levodopa containing solution was intraperitoneally administered to observe and evaluate the behavior. Individuals with 50% or more of the tape agent coming off during the test were excluded from analysis.
After 4 hours, a levodopa containing solution was administered to observe and evaluate the behavior.
After 4 hours, a levodopa containing solution was administered to observe and evaluate the behavior (day 0 of implanting the pump). Repeat administration of once daily levodopa containing solution was continued thereafter. The behavior was also observed and evaluated on day 13 of implanting the pump.

[4] = continuous subcutaneous infusion 1.25 mg/kg/hour
[5] = oral 20 mg/kg as free form, FIGS. 7A-7C
[6] = oral 20 mg/kg as free form, FIGS. 8A-8L

concentration at 7 h ([3]; continuous subcutaneous infusion 0.05 mg/kg/hour): 23.5 ng/mL | concentration at 7 h ([3]; continuous subcutaneous infusion 0.25 mg/kg/hour): 119 ng/mL | concentration at 7 h [3, 4]: 541 ng/mL
Compound: O=C1[C@@H]2[C@H]3CC[C@H](C3)[C@@H]2C(=O)N1CCCCN1CCN(c2ncccn2)CC1 [tandospirone, (1R,2S,3R,4S)—N-[4-{4-(pyrimidine-2-yl)piperadine-1-yl}butyl]-2,3-bicyclo[2.2.1]heptanedicarboximide]
dyskinesia-like symptoms (total AIMs score in 180 minutes) vs solvent [1, 4]: significant improvement | total AIMs score in 100 to 180 minutes vs solvent [1, 4]: significant improvement | dyskinesia-like symptoms (total AIMs score in 180 minutes) ([1]; continuous subcutaneous infusion 0.05, 0.25, 1.25 mg/kg/hour, levodopa after 4 hours): dose-dependently improved dyskinesia-like symptoms | clear dyskinesia-like symptom (mean AIMs score of 2 or greater) at 120 to 140 minutes after levodopa administration ([1]; continuous subcutaneous infusion 0.05-1.25 mg/kg/hour): not found | rebound symptom ([1]; continuous subcutaneous infusion, any of the dosages): did not lead to a rebound symptom | affinity in receptor binding (dopamine 2 receptors): low affinity | (i) Indicator of degree of improvement in dyskinesia symptom, in words ([2]; oral 6.7 mg/kg as free form): No improvement | (i) difference in total AIMs score in 3 hours (solvent minus tandospirone) ([2]; oral 6.7 mg/kg as free form): −3.1 | (ii) Indicator of rebound symptom of dyskinesia, in words ([2]; oral 6.7 mg/kg as free form): Exacerbating trend | (ii) difference in total AIMs score in 100 to 180 minutes (solvent minus tandospirone) ([2]; oral 6.7 mg/kg as free form): −3.5 | (i) Indicator of degree of improvement in dyskinesia symptom, in words ([2]; oral 20 mg/kg as free form): No improvement | (ii) Indicator of rebound symptom of dyskinesia, in words ([2]; oral 20 mg/kg as free form): Exacerbation | (i) difference in total AIMs score in 3 hours (solvent minus tandospirone) [2, 5]: −6.5(FIGS. 7A-7C) | (ii) difference in total AIMs score in 100 to 180 minutes (solvent minus tandospirone) [2, 5]: −9.1*(FIGS. 7A-7C) | (i) difference in total AIMs score in 3 hours (solvent minus tandospirone) [2, 6]: −8.6(FIGS. 8A-8L) | (ii) difference in total AIMs score in 100 to 180 minutes (solvent minus tandospirone) [2, 6]: −8.5*(FIGS. 8A-8L) | (i) Indicator of degree of improvement in dyskinesia symptom, in words ([2]; oral 67 mg/kg as free form): No improvement | (i) difference in total AIMs score in 3 hours (solvent minus tandospirone) ([2]; oral 67 mg/kg as free form): 2.9 | (ii) Indicator of rebound symptom of dyskinesia, in words ([2]; oral 67 mg/kg as free form): Exacerbation | (ii) difference in total AIMs score in 100 to 180 minutes (solvent minus tandospirone) ([2]; oral 67 mg/kg as free form): −10.1*
